From patent US20090203753A1, “7-(2-amino-1-hydroxy-ethyl)-4-hydroxybenzothiazol-2(3H)-one-derivatives as beta2 adrenoreceptor agonists” (AstraZeneca AB, priority 2005, published 2009)

What was measured:
[1] = target: T1, β2 receptor (Homo sapiens, UniProt P07550); assay: Alternative adrenergic β2 mediated cAMP production in H292 cells (60 minutes with test compound); assay type: cell-based
T1 construct: endogenous in cells; host or cells: H292 cells
Experimental: Alternative Adrenergic (β2 Mediated cAMP Production
H292 cells were grown in 225 cm2 flasks incubator at 37° C., 5% CO2 in RPMI medium containing, 10% (v/v) FBS (foetal bovine serum) and 2 mM L-glutamine.
Adherent H292 cells were removed from tissue culture flasks by treatment with Accutase™ cell detachment solution for 15 minutes. Flasks were incubated for 15 minutes in a humidified incubator at 37° C., 5% CO2. Detached cells were re-suspended in RPMI media (containing 10% (v/v) FBS and 2 mM L-glutamine) at 0.05×10^6 cells per mL. 5000 cells in 100 μL were added to each well of a tissue-culture-treated 96-well plate and the cells incubated overnight in a humidified incubator at 37° C., 5% CO2. The culture media was removed and cells were washed twice with 100 μL assay buffer and replaced with 50 μL assay buffer (HBSS solution containing 10 mM HEPES pH7.4 and 5 mM glucose). Cells were rested at room temperature for 20 minutes after which time 25 μL of rolipram (1.2 mM made up in assay buffer containing 2.4% (v/v) dimethylsulphoxide) was added. Cells were incubated with rolipram for 10 minutes after which time test compounds were added and the cells were incubated for 60 minutes at room temperature. The final rolipram concentration in the assay was 300 μM and final vehicle concentration was 1.6% (v/v) dimethylsulphoxide. The reaction was stopped by removing supernatants, washing once with 100 μL assay buffer and replacing with 50 μL lysis buffer. The cell monolayer was frozen at −80° C. for 30 minutes (or overnight).
The concentration of cAMP (cyclic adenosine monophosphate) in the cell lysate was determined using AlphaScreen™ methodology. The frozen cell plate was thawed for 20 minutes on a plate shaker then 10 μL of the cell lysate was transferred to a 96-well white plate. 40 μL of mixed AlphaScreen™ detection beads pre-incubated with biotinylated cAMP, was added to each well and the plate incubated at room temperature for 10 hours in the dark. The AlphaScreen™ signal was measured using an EnVision spectrophotometer (Perkin-Elmer Inc.) with the recommended manufacturer's settings. cAMP concentrations were determined by reference to a calibration curve determined in the same experiment using standard cAMP concentrations. Concentration response curves for agonists were constructed and data was fitted to a four parameter logistic equation to determine both the pEC50 and Intrinsic Activity. […]

[2] = target: T2, recombinant human Dopamine Subtype D2s receptors (Homo sapiens, UniProt P14416); assay: Dopamine D2 selectivity assay, [3H]-spiperone binding to membranes; conditions: read-out: D2 bind pIC50 (converted)
T2 construct: purchased Perkin Elmer
Experimental: Membranes containing recombinant human Dopamine Subtype D2s receptors were obtained from Perkin Elmer. These were diluted in Assay Buffer (50 mM HEPES, […], 120 mM NaCl, 0.1% gelatin, pH 7.4) to provide a final concentration of membranes that gave a clear window between maximum and minimum specific binding.
(§1) Assays were performed in U-bottomed 96-well polypropylene plates. 30 μL [^3H]-spiperone (0.16 nM final concentration) and 30 μL of test compound (10× final concentration) were added to each test well. For each assay plate 8 replicates were obtained for [^3H]-spiperone binding in the presence of 30 μL vehicle (10% (v/v) DMSO in Assay Buffer; defining maximum binding) or 30 μL Haloperidol (10 μM final concentration; defining non-specific binding (NSB)). Membranes were then added to achieve a final volume of 300 μL. The plates were incubated for 2 hours at room temperature and then filtered onto PEI coated GF/B filter plates, pre-soaked for 1 hour in Assay Buffer, using a 96-well plate Tomtec cell harvester. Five washes with 250 μL wash buffer (50 mM HEPES, 1 mM EDTA, 120 mM NaCl, pH 7.4) were performed at 4° C. to remove unbound radioactivity. The plates were dried then sealed from underneath using Packard plate sealers and MicroScint-O (50 μL) was added to each well. The plates were sealed (TopSeal A) and filter-bound radioactivity was measured with a scintillation counter (TopCount, Packard BioScience) using a 3-minute counting protocol.
(§2) Total specific binding (B0) was determined by subtracting the mean NSB from the mean maximum binding. NSB values were also subtracted from values from all other wells.

[3] = target: T3, recombinant human α1D receptor (Homo sapiens, UniProt P25100); assay: Adrenergic α1D selectivity assay, [3H]-prazosin binding to HEK293 membranes; conditions: read-out: α1 bind pIC50 (converted)
T3 construct: expressed in transfected cells; host or cells: HEK293
T3 sequence (P25100 1-572): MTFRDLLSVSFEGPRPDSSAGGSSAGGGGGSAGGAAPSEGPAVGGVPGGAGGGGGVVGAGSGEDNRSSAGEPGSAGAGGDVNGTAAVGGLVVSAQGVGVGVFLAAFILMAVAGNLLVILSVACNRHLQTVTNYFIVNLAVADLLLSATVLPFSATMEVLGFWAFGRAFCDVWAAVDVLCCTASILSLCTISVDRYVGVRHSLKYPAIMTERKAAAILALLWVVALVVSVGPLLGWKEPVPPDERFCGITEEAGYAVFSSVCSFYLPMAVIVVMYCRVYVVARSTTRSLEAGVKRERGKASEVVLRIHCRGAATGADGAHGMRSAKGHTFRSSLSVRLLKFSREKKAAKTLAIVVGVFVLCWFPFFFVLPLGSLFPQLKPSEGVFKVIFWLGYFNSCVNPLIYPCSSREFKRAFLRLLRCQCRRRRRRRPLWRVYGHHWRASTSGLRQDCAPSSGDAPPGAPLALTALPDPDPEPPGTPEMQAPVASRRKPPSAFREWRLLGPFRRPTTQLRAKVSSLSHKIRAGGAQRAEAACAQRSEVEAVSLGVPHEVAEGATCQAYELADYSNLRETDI
Experimental: Membranes were prepared from human embryonic kidney 293 (HEK293) cells expressing recombinant human α1D receptor. These were diluted in Assay Buffer (50 mM HEPES, 1 mM EDTA, 0.1% gelatin, pH 7.4) to provide a final concentration of membranes that gave a clear window between maximum and minimum specific binding.
as §1, with “10” for “30”, “[^3H]-prazosin (0.3” for “[^3H]-spiperone (0.16”, “[^3H]-prazosin” for “[^3H]-spiperone”, “BMY7378” for “Haloperidol”, “100” for “300”, “EDTA,” for “EDTA, 120 mM NaCl,”
as §2

T1 sequence (P07550 whole entry): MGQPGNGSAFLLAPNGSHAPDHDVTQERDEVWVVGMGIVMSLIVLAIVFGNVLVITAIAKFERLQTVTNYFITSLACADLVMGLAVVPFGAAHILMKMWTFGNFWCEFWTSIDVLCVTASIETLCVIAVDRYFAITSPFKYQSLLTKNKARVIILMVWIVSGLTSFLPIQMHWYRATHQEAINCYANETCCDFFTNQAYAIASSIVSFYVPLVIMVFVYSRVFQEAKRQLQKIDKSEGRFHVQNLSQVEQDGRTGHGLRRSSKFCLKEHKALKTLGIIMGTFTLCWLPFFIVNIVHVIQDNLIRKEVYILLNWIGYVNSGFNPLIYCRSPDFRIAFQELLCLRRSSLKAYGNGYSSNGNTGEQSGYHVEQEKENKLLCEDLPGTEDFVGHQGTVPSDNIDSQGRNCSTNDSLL
T2 sequence (P14416 1-414 isoform P14416-2): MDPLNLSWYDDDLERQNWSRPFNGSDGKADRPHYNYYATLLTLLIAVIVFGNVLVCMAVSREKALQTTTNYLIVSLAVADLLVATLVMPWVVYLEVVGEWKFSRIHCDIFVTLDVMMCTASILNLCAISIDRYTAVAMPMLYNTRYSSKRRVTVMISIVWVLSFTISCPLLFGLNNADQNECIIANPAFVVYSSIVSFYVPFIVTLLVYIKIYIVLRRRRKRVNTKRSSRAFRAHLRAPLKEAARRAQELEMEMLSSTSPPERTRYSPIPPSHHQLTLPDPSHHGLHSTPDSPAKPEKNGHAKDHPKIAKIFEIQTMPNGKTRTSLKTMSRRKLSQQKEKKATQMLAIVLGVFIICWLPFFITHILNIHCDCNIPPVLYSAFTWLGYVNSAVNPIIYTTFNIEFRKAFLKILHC

Question: With `CCN(CC)CCN(CCNC[C@H](O)c1ccc(O)c2[nH]c(=O)sc12)C(=O)CCOCCc1ccccc1` [Example 7, N-[2-(Diethylamino)ethyl]-N-(2-{[(2R)-2-hydroxy-2-(4-hydroxy-2-oxo-2,3-dihydro-1,3-benzothiazol-7-yl)ethyl]amino}ethyl)-3-(2-phenylethoxy)propanamide] as the compound, how does the EC50 ([1]; cAMP, 60 minutes incubation with compound, 300 μM rolipram, read-out: β2 pEC50 (converted)) read?
Answer: The EC50 was 0.00398 µM.

Question: What about the “β2 Int Act” value ([1]; fraction relative to the maximum activity determined for formoterol, 60 minutes incubation) of the same compound?
Answer: The value was 1.

Question: What about the IC50 [2] of the same compound?
Answer: The IC50 was 5.01 µM.

Question: What about the IC50 [3] of the same compound?
Answer: Its IC50 is 5.01 µM.
